Data: US8435976B2, “4-substituted pyridin-3-yl-carboxamide compounds and methods of use” (F. Hoffmann-La Roche, priority 2009, dated 2013)

Assays:
[1] = target: T1, PIM1 (Homo sapiens, UniProt P11309); assay: Pim-1 kinase enzymatic assay (Caliper LC3000, FAM-Pimtide substrate); format: biochemical; conditions: 20 pM PIM1, 10 μM ATP, 90 minutes; read-out: PIM1 LC3K (Ki)
T1 construct: made in house
Experimental: (§1) Reaction Buffer contained 10 mM HEPES, pH 7.2, 10 mM MgCl2, 0.01% Tween 20, 2 mM DTT.
(§2) PIM reactions were carried out in a final volume of 10 μL per well in a 384-well plate. […] The separation of product and substrate was optimized by choosing voltages and pressure using Caliper's Optimizer software (Hopkinton, Mass.). The separation conditions used a downstream voltage of −500V, an upstream voltage of −2150V, and a screening pressure of −1.2 psi. […] Substrate conversion was calculated from the electrophoregram using HTS Well Analyzer software (Caliper Life Sciences, Hopkinton, Mass.). Ki values for the test compound were calculated.

[2] = target: T2, PIM2 (Homo sapiens, UniProt Q9P1W9); assay: Pim-2 kinase enzymatic assay (Caliper LC3000, FAM-Pimtide substrate); format: biochemical; conditions: 50 pM PIM2, 10 μM ATP, 90 minutes; read-out: PIM2 LC3K (Ki)
T2 construct: made in house
Experimental: as §1, §2

[3] = target: T3, PIM3 (Homo sapiens, UniProt Q86V86); assay: Pim-3 kinase enzymatic assay (Caliper LC3000, FAM-Pimtide substrate); format: biochemical; conditions: 55 pM PIM3, 10 μM ATP, 90 minutes; read-out: PIM3 LC3K (Ki)
T3 construct: made in house
Experimental: as §1, §2

[4] = target: BaF3 PIM1 cells (Homo sapiens, UniProt P11309); assay: BaF3 PIM1 cell proliferation (Cell Titer Glo); format: cell-based; conditions: incubated overnight; read-out: Prolif BaF3_PIM1 (IC50)
Experimental: (§3) BaF3 parental line was obtained from the DSMZ repository. BaF3 lines transfected with PIM1 or PIM2 were generated. Mouse IL-3 was purchased from R&D Systems. G418 was purchased from Clontech. Media for BaF3 parental line contained RPMI, 10% FBS, 2 mM L-Glutamine, 2 ng/mL mIL-3. Media for BaF3 PIM1 & 2 lines contained RPMI, 10% FBS, 2 mM L-Glutamine, […]. Media for MM1.S line contained RPMI, 10% FBS, 2 mM L-Glutamine.
(§4) BaF3 parental cells, BaF3 PIM1 cells, BaF3 PIM2 cells, and MM1.S cells were seeded at 2 k/well, 5 k/well, 5 k/well, and 10 k/well respectively, in a 384-well plate, at 45 μL/well. Test compound was added at 5 μL/well. BaF3 cells (parental and transfected) were incubated overnight, while MM1.S cells were incubated for 72 hours at 37° C., 5% CO2. Cell Titer Glo Reagent (Promega) was added at 50 μL/well, the plates were incubated for 30 minutes, and their luminescence read on an HT Analyst. IC50/EC50 values for the test compound were calculated.

[5] = target: BaF3 PIM2 cells (Homo sapiens, UniProt Q9P1W9); assay: BaF3 PIM2 cell proliferation (Cell Titer Glo); format: cell-based; conditions: incubated overnight; read-out: Prolif BaF3_PIM2 (IC50)
Experimental: as §3, §4

[6] = system: MM1.S cells; assay: MM1.S cell proliferation, 72 hours (Cell Titer Glo); format: cell-based; conditions: Homo sapiens, 72 hours, read-out: Prolif MM1S ATP (EC50)
Experimental: as §3, §4

T1 sequence (P11309 whole entry): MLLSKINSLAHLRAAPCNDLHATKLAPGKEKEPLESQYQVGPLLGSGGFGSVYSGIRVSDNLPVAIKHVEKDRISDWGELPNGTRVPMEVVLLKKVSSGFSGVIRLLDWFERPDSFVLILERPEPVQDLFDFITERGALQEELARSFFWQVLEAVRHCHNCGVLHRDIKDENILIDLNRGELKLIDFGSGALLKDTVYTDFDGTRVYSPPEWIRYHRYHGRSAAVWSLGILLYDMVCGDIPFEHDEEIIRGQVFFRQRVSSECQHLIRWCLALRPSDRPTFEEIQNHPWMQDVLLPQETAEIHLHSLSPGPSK
Chain of BaF3 PIM1 cells (P11309 whole entry, change not shown): as the sequence (P11309 whole entry) above
Chain of BaF3 PIM2 cells (Q9P1W9 whole entry, change not shown): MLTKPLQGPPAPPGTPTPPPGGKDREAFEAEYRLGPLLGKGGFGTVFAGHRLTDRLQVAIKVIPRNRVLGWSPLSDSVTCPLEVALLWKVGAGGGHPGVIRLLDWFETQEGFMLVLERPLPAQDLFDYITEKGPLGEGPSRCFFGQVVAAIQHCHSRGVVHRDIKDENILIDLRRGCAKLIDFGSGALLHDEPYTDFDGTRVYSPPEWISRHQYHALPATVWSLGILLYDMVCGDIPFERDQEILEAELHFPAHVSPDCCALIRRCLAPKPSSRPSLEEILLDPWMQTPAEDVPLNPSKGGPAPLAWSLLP
T2 sequence (Q9P1W9 whole entry): as the sequence (Q9P1W9 whole entry, change not shown) above

Ki [1] | Ki [2] | Ki [3] | GI50 [4] | GI50 [5] | EC50 [6] | Structure (SMILES)
0.044 nM | 0.493 nM | 0.05 nM | 300 nM | 2800 nM | 1500 nM | Nc1sc(-c2cc(Br)ccc2Cl)nc1C(=O)Nc1cnccc1N1CCC[C@H](N)C1 [Example 5, (S)-5-amino-N-(4-(3-aminopiperidin-1-yl)pyridin-3-yl)-2-(5-bromo-2-chlorophenyl)thiazole-4-carboxamide]
0.032 nM | 0.512 nM | 0.113 nM | 38.1 nM | 1900 nM | 191 nM | Nc1sc(-c2ccc3cccnc3c2)nc1C(=O)Nc1cnccc1N1CCC[C@H](N)C1 [Example 44, (S)-5-amino-N-(4-(3-aminopiperidin-1-yl)pyridin-3-yl)-2-(quinolin-7-yl)thiazole-4-carboxamide]
0.642 nM | 18.2 nM | 1.01 nM | 7100 nM | > 20000 nM | 10400 nM | Nc1sc(-c2ccc3nccn3c2)nc1C(=O)Nc1cnccc1N1CCC[C@H](N)C1 [Example 61, (S)-5-amino-N-(4-(3-aminopiperidin-1-yl)pyridin-3-yl)-2-(imidazo[1,2-a]pyridin-6-yl)thiazole-4-carboxamide]
0.129 nM | 0.725 nM | 0.037 nM | 164 nM | 6500 nM | 2500 nM | Cc1ccccc1-c1nc(C(=O)Nc2cnccc2N2CCC[C@H](N)C2)c(N)s1 [Example 40, (S)-5-amino-N-(4-(3-aminopiperidin-1-yl)pyridin-3-yl)-2-o-tolylthiazole-4-carboxamide]
0.023 nM | 0.154 nM | 0.026 nM | 55.8 nM | > 2500 nM | 160 nM | Nc1sc(-c2cc(Br)ccc2F)nc1C(=O)Nc1cnccc1N1CCC[C@H](N)C1 [Example 4, (S)-5-amino-N-(4-(3-aminopiperidin-1-yl)pyridin-3-yl)-2-(5-bromo-2-fluorophenyl)thiazole-4-carboxamide]
18.2 nM | 355 nM | 48 nM | > 20000 nM | > 20000 nM | > 20000 nM | C=C(C)c1nc(C(=O)Nc2cnccc2N2CCC[C@H](N)C2)c(N)s1 [Example 59, (S)-5-amino-N-(4-(3-aminopiperidin-1-yl)pyridin-3-yl)-2-(prop-1-en-2-yl)thiazole-4-carboxamide]
0.43 nM | 16.3 nM | 1.76 nM | > 14000 nM | > 20000 nM | 20000 nM | Nc1sc(-c2c(F)cccc2F)nc1C(=O)Nc1cnccc1N1CCCCC1 [Example 24, 5-amino-2-(2,6-difluorophenyl)-N-(4-(piperidin-1-yl)pyridin-3-yl)thiazole-4-carboxamide]
26.9 nM | 72.3 nM | 23.1 nM | 7800 nM | > 20000 nM | 15700 nM | Cc1cccc(C)c1-c1nc(C(=O)Nc2cnccc2N2CCC[C@H](N)C2)c(N)s1 [Example 54, (S)-5-amino-N-(4-(3-aminopiperidin-1-yl)pyridin-3-yl)-2-(2,6-dimethylphenyl)thiazole-4-carboxamide]
3.47 nM | 16.3 nM | 9.53 nM | 713 nM | > 20000 nM | > 20000 nM | Cc1nc(C(=O)Nc2cnccc2N2CCC[C@H](N)C2)c(N)s1 [Example 8, (S)-5-amino-N-(4-(3-aminopiperidin-1-yl)pyridin-3-yl)-2-methylthiazole-4-carboxamide]
0.054 nM | 0.495 nM | 0.052 nM | 520 nM | > 20000 nM | 4700 nM | NC(=O)c1cccc(-c2nc(C(=O)Nc3cnccc3N3CCC[C@H](N)C3)c(N)s2)c1 [Example 22, (S)-5-amino-N-(4-(3-aminopiperidin-1-yl)pyridin-3-yl)-2-(3-carbamoylphenyl)thiazole-4-carboxamide]
0.036 nM | 0.0939 nM | 0.022 nM | 30.4 nM | 2100 nM | 121 nM | Nc1sc(-c2ccc(F)cc2F)nc1C(=O)Nc1cnccc1N1CCC[C@H](N)C1 [Example 42, (S)-5-amino-N-(4-(3-aminopiperidin-1-yl)pyridin-3-yl)-2-(2,4-difluorophenyl)thiazole-4-carboxamide]
0.102 nM | 0.434 nM | 0.118 nM | 135 nM | 2800 nM | 1900 nM | CCCCOc1ccc(F)c(-c2nc(C(=O)Nc3cnccc3N3CCC[C@H](N)C3)c(N)s2)c1F [Example 28, (S)-5-amino-N-(4-(3-aminopiperidin-1-yl)pyridin-3-yl)-2-(3-butyloxy-2,6-difluorophenyl)thiazole-4-carboxamide]
0.561 nM | 2.78 nM | 0.338 nM | 613 nM | 12500 nM | 5500 nM | N[C@H]1CCCN(c2ccncc2NC(=O)c2csc(-c3ccccc3F)n2)C1 [Example 45, (S)-N-(4-(3-aminopiperidin-1-yl)pyridin-3-yl)-2-(2-fluorophenyl)thiazole-4-carboxamide]
14 nM | 76.5 nM | 6.81 nM | > 20000 nM | > 20000 nM | > 20000 nM | Nc1sc(-c2c(F)cccc2F)nc1C(=O)Nc1cnccc1Cl [Example 17, 5-amino-N-(4-chloropyridin-3-yl)-2-(2,6-difluorophenyl)thiazole-4-carboxamide]
0.084 nM | 0.16 nM | 0.014 nM | 68.8 nM | 1900 nM | 89.7 nM | Nc1sc(-c2ccccn2)nc1C(=O)Nc1cnccc1N1CCC[C@H](N)C1 [Example 9, (S)-5-amino-N-(4-(3-aminopiperidin-1-yl)pyridin-3-yl)-2-(pyridin-2-yl)thiazole-4-carboxamide]
0.0224 nM | 0.0671 nM | 0.0156 nM | 33.2 nM | 1400 nM | 108 nM | Nc1sc(-c2ccccc2F)nc1C(=O)Nc1cnccc1N1CCC[C@H](N)C1 [Example 1, (S)-5-amino-N-(4-(3-aminopiperidin-1-yl)pyridin-3-yl)-2-(2-fluorophenyl)thiazole-4-carboxamide]
94.9 nM | 97.1 nM | 47.3 nM | > 20000 nM | > 20000 nM | > 20000 nM | Nc1sc(C2CCCNC2)nc1C(=O)Nc1cnccc1N1CCCC(N)C1 (stereo not drawn) [Example 65, 5-amino-N-(4-(3-aminopiperidin-1-yl)pyridin-3-yl)-2-(piperidin-3-yl)thiazole-4-carboxamide]
0.063 nM | 0.379 nM | 0.032 nM | 117 nM | 1400 nM | 595 nM | Nc1sc(-c2cccc(Br)c2)nc1C(=O)Nc1cnccc1N1CCC[C@H](N)C1 [Example 6, (S)-5-amino-N-(4-(3-aminopiperidin-1-yl)pyridin-3-yl)-2-(3-bromophenyl)thiazole-4-carboxamide]
0.5 nM | 6.88 nM | 0.333 nM | 614 nM | 1400 nM | 743 nM | Nc1sc(-c2c(F)cccc2F)nc1C(=O)Nc1cnccc1N1CCNCC1 [Example 50, 5-amino-2-(2,6-difluorophenyl)-N-(4-(piperazin-1-yl)pyridin-3-yl)thiazole-4-carboxamide]
